Test systems include 786-0 renal; A498 renal; CAKI-1 renal; CCRF-CEM leukemia; DU-145 prostate; HCT-116 colon; MOLT-4 leukemia; SW-620 colon; TK-10 renal; UACC-257 melanoma.
What all share (test): inhibition of tumour cell growth, NCI panel, 48 h

Values joined by “and” are separate entries in the source; they are usually repeats but may differ in a detail not shown here. Identical values can stand only once.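 Tested at 5 concentrations; 48 h exposure; 96-well plates; endpoints linearly interpolated, else capped at highest concentration. At the GI50, growth is halved. TGI: concentration producing complete growth inhibition.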 A value given as a limit tells only on which side of the number the result lay.

`Cc1c2ncccc2c(C)c2c1[nH]c1ccc(O)cc12`: the GI50 with 786-0 renal is 5.25 µM; in the assay with CCRF-CEM leukemia, 4.65 µM; in the assay with DU-145 prostate, 5.31 µM; with HCT-116 colon it was 2.91 µM and 6.58 µM; in the assay with SW-620 colon, 7.83 µM; with TK-10 renal it was 17.4 µM. Further, the GI50 in the assay with UACC-257 melanoma was 27.3 µM. Besides, the TGI in the assay on 786-0 renal was 15.6 µM and 11.6 µM; in the assay on A498 renal, 26.1 µM; in the assay with CAKI-1 renal it was 15.8 µM; with CCRF-CEM leukemia, 5.49 µM; in the assay on DU-145 prostate, 17.9 µM; in the assay on HCT-116 colon, 11 µM and 64.6 µM. Also, the TGI in the assay with MOLT-4 leukemia is 3.56 µM and 2.13 µM; with SW-620 colon, 39.9 µM; with TK-10 renal, 25.9 µM and 61.6 µM; with UACC-257 melanoma it was 25.2 µM and 89 µM.

For `O=P(Oc1ccccc1)(Oc1ccccc1)C(O)c1ccccc1` (configuration not stated), the GI50 with 786-0 renal was more than 100 µM; with A498 renal, 34.8 µM; in the assay on CAKI-1 renal, 66.5 µM; in the assay with CCRF-CEM leukemia it was more than 100 µM; in the assay on DU-145 prostate it was more than 100 µM; in the assay with HCT-116 colon, 65.9 µM. Moreover, the GI50 with MOLT-4 leukemia is more than 100 µM; in the assay with SW-620 colon, more than 100 µM; in the assay on TK-10 renal, more than 100 µM; in the assay on UACC-257 melanoma, 36.5 µM. The TGI with 786-0 renal, in the assay with A498 renal, with CAKI-1 renal, with CCRF-CEM leukemia, in the assay on DU-145 prostate and in the assay with HCT-116 colon was more than 100 µM in each case. For the same compound, the TGI in the assay on MOLT-4 leukemia, in the assay with SW-620 colon, with TK-10 renal and with UACC-257 melanoma was more than 100 µM in each case.

In the case of `CN(C)CCCNC(=O)c1cc(NC(=O)c2cc(NC(=O)CCCN3c4ccccc4C=Cc4ccccc43)cn2C)cn1C`, the GI50 with 786-0 renal is 11.4 µM; in the assay with A498 renal, 22.4 µM; in the assay on CAKI-1 renal, 18.5 µM; in the assay with CCRF-CEM leukemia, 2.82 µM; in the assay on DU-145 prostate, 10.6 µM; with HCT-116 colon, 3.35 µM. The GI50 in the assay with MOLT-4 leukemia was 2.88 µM; in the assay with SW-620 colon, 3.96 µM; with TK-10 renal it was 2.74 µM; with UACC-257 melanoma, 4.5 µM. For the same compound, the TGI with 786-0 renal was more than 100 µM; in the assay on A498 renal, 53.3 µM; in the assay on CAKI-1 renal it was 43.9 µM; in the assay with CCRF-CEM leukemia, 12.7 µM; in the assay with DU-145 prostate it was 35.4 µM; with HCT-116 colon, more than 100 µM. Further, the TGI in the assay with MOLT-4 leukemia is more than 100 µM; in the assay on SW-620 colon, more than 100 µM; with TK-10 renal, 13.9 µM; in the assay on UACC-257 melanoma, 30.6 µM.

As for `CCOC(=O)c1[nH]c2cccc3c2c1CC(Br)C3=O` (configuration not stated), the TGI with 786-0 renal was 17.3 µM; in the assay with A498 renal, 32.3 µM; with CAKI-1 renal, 23.6 µM; in the assay with CCRF-CEM leukemia, more than 100 µM; in the assay on DU-145 prostate it was 30.4 µM; in the assay on HCT-116 colon, 7.79 µM. Besides, the TGI in the assay on MOLT-4 leukemia was determined as 6.33 µM; in the assay on SW-620 colon it was 5.41 µM; with TK-10 renal, 28.1 µM; with UACC-257 melanoma, 28.6 µM.

As to `COc1c(O)cc2oc3cc(O)c(CC=C(C)C)c(O)c3c(=O)c2c1C/C=C(\C)CCC=C(C)C`, the GI50 with 786-0 renal is 6.36 µM; in the assay with A498 renal it was 5.96 µM; in the assay on CAKI-1 renal, 4.69 µM; in the assay on CCRF-CEM leukemia it was 11.7 µM; in the assay on DU-145 prostate, 5.98 µM; in the assay on HCT-116 colon it was 5.24 µM. Moreover, the GI50 is 6.11 µM in the assay with MOLT-4 leukemia, 5.8 µM with SW-620 colon, 8.15 µM in the assay with TK-10 renal and 5.63 µM in the assay with UACC-257 melanoma. For the same compound, the TGI in the assay with 786-0 renal is 11.6 µM; in the assay with A498 renal it was 10.5 µM; in the assay with CAKI-1 renal, 9.39 µM; with CCRF-CEM leukemia, 32.5 µM; with DU-145 prostate, 10.5 µM; in the assay on HCT-116 colon, 10.4 µM. Also, the TGI with MOLT-4 leukemia is 16.3 µM; in the assay with SW-620 colon, 10.4 µM; in the assay on TK-10 renal, 15.5 µM; in the assay with UACC-257 melanoma it was 10.5 µM.

Regarding `OCc1ccc(N(Cc2ccc(F)cc2)C2CCC2)cc1Cl`, the GI50 with 786-0 renal was 10.3 µM; in the assay on A498 renal, 0.0332 µM; in the assay on CAKI-1 renal, 0.619 µM; in the assay with CCRF-CEM leukemia, 14.9 µM; in the assay on DU-145 prostate, 14.2 µM; in the assay with HCT-116 colon, 0.115 µM. The GI50 in the assay with MOLT-4 leukemia is 15.7 µM; in the assay on SW-620 colon it was 0.744 µM; with TK-10 renal, 0.0551 µM; with UACC-257 melanoma, 0.121 µM. Also, the TGI with 786-0 renal was 24.3 µM; in the assay with A498 renal, 0.156 µM; in the assay on CAKI-1 renal, 4.02 µM; with CCRF-CEM leukemia, 34.6 µM; in the assay on DU-145 prostate it was 28 µM; in the assay with HCT-116 colon it was 3.73 µM. The TGI was 36.7 µM with MOLT-4 leukemia, 16.8 µM with SW-620 colon, 0.278 µM with TK-10 renal and 0.46 µM in the assay on UACC-257 melanoma.

For `COc1cc2c3c(n(CCCO)c(=O)c2cc1OC)-c1cc2c(cc1C3=O)OCO2`, the GI50 is 2.46 µM in the assay on 786-0 renal; 42.8 µM in the assay with A498 renal; 0.465 µM in the assay with CAKI-1 renal; 3.54 µM in the assay on CCRF-CEM leukemia; 3.22 µM with DU-145 prostate; 2.96 µM with HCT-116 colon. The GI50 is 0.841 µM with MOLT-4 leukemia, 4.75 µM with SW-620 colon, 34.7 µM in the assay with TK-10 renal and 64.7 µM with UACC-257 melanoma. The TGI in the assay on 786-0 renal is 10.1 µM; in the assay with A498 renal it was more than 73 µM; with CAKI-1 renal, more than 19.6 µM; in the assay with CCRF-CEM leukemia, 14.4 µM; in the assay with DU-145 prostate it was more than 44.3 µM; in the assay on HCT-116 colon it was more than 38.6 µM. The TGI in the assay with MOLT-4 leukemia is 6.7 µM; in the assay on SW-620 colon, more than 100 µM; in the assay with TK-10 renal, more than 100 µM; with UACC-257 melanoma, more than 100 µM.

In the case of `O=C(O)C1CCCN1Cc1c[nH]c2ccccc12` (configuration not stated), the TGI in the assay on 786-0 renal, in the assay on A498 renal, in the assay on CAKI-1 renal, in the assay on CCRF-CEM leukemia, in the assay on DU-145 prostate and in the assay with HCT-116 colon was more than 100 µM in each case. Also, the TGI in the assay on MOLT-4 leukemia, with SW-620 colon, in the assay on TK-10 renal and in the assay with UACC-257 melanoma was more than 100 µM throughout.

The record behind these values is PubChem BioAssay (NCI).
